Earlier results in patent publication US6676951B1, “Host-guest processes and formulations for delivering bio-affecting compounds” (priority 1999, dated 2004).

Settings: C=O bond external to the ring

- pKa of the C=O external to the ring structure: 4.5
SMILES: O=C1O[C@H]([C@@H](O)CO)C(O)=C1O [ascorbic acid, L-ascorbic acid]
